Source: ChEMBL document CHEMBL3739335, “Phosphonooxymethyl Prodrug of Triptolide: Synthesis, Physicochemical Characterization, and Efficacy in Human Colon Adenocarcinoma and Ovarian Cancer Xenografts” (J Med Chem, 2015)

Key:
[1] = Half life of the compound
[2] = biological target: T1, Alkaline phosphatase, tissue-nonspecific isozyme (Bos taurus, UniProt P09487); experiment: Drug level in glycine buffer treated with Sodium (((5bS,6aS,7aR,8R,8aS,9aS,9bS,10aS,10bS)-8a-Isopropyl-10b-methyl-3-oxo-1,2,3,5,5b,6,6a,8,8a,9a,9b,10b-dodecahydrotris-(oxireno)[2',3':4b,5;'',3'':6,7;2''',3''':8a,9]phenanthro[1,2-c]furan-8-yl)oxy)methyl Phosphate at pH 9.8 in presence of bovine intestinal mucosal alkaline phosphatase; settings: cattle, isolated protein
T1 sequence (P09487 whole entry): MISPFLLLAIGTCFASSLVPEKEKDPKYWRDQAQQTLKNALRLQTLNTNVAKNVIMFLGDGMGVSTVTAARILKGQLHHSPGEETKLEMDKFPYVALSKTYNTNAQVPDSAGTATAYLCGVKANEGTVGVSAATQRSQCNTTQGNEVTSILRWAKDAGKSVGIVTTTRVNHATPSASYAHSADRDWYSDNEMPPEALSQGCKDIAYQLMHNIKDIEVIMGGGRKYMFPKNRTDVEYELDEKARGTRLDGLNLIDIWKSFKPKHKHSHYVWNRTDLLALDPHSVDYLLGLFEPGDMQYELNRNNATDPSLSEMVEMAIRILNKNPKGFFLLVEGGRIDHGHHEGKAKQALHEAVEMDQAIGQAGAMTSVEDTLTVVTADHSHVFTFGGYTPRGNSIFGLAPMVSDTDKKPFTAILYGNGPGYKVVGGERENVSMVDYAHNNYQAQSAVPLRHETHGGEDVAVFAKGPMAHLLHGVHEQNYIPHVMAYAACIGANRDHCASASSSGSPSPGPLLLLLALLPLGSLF

Question: Which half-life [1] does the source give for `C=O` [FORMALDEHYDE] here?
Answer: 1.5 min

Question: And the Drug metabolism [2]?
Answer: metabolite_detected

Question: For `CC(C)[C@]12O[C@H]1[C@@H]1O[C@]13[C@]1(O[C@H]1C[C@H]1C4=C(CC[C@@]13C)C(=O)OC4)[C@@H]2O` [TRIPTOLIDE], which Drug metabolism [2] is on record?
Answer: metabolite_detected
